One data set is described as follows: Acute Toxicity. The note with it: mouse, in vivo.
For the next data set, the system named is Klebsiella pneumoniae. Description: MIC in Mueller-Hinton Broth pH 7.2. It counts as cell-based. The text has this:
(§1) In vitro Activity of the Mutamicins and Sisomicin
(§2) MIC's in Mueller-Hinton Broth pH 7.2

A further data set deals with Aspergillus niger. Description: MIC in Mueller-Hinton Broth pH 7.2. Format: cell-based. The note with it: pH 7.2.
Excerpt: as §1, §2

Values after ≈ are worked out from the molar mass of the structure shown.

As a reminder, the LD50 is the dose expected to kill half of the subjects tested. Lower therefore signals greater toxicity. For orientation: MIC means the smallest concentration in the dilution series that meets the test's criterion for growth inhibition. High values mean a need for much substance, low ones inhibition by little substance. On to `CN[C@@H]1[C@@H](O)[C@@H](O[C@@H]2[C@@H](O)[C@H](O[C@H]3OC(CN)=CC[C@H]3N)[C@@H](N)C[C@H]2N)OC[C@]1(C)O` [Sisomicin, O-2,6-Diamino-2,3,4,6-tetradeoxy-α-D-glycero-hex-4-eno-pryanosyl(1→4)-O-[3-deoxy-4-C-methyl-3-(methylamino)-B-L-arabinopyranosyl(1→6)] -2-deoxy-D-streptamine, reference compound], for which the median lethal dose (LD50) in the data set “Acute Toxicity” (ip) stood at 190 mg/kg; in “Acute Toxicity” (iv), 34 mg/kg. Further, the MIC against Klebsiella pneumoniae (pH 7.2, strain Ad 18) was 0.08 µg/mL (≈ 0.179 µM); against Klebsiella pneumoniae (pH 7.2, strain Genta. adenyl 121) it was 0.08 µg/mL (≈ 0.179 µM); with Klebsiella pneumoniae (pH 7.2, strain Genta. adenyl 3020), 7.5 µg/mL (≈ 16.8 µM); in the data set with Klebsiella pneumoniae (pH 7.2, strain Genta. adenyl 3694) it was 7.5 µg/mL (≈ 16.8 µM); against Klebsiella pneumoniae (pH 7.2, strain Kana. phos. Ad 22), 0.3 µg/mL (≈ 0.67 µM); against Aspergillus niger it was > 25 µg/mL.

Values taken from patent US4011390A, “Semi-synthetic aminocyclitol aminoglycoside antibiotics and methods for the preparation thereof” (Schering-Plough Corporation, priority 1974, dated 1977).
